# Results as given in patent US20080051451A1, “Autoimmune conditions and NADPH oxidase defects” (priority 2006, published 2008).
# “Also recorded” adds a separate entry of the source.
# What was measured:
# DA.Ncf1^DA rats [1] = test: Non oil collagen induced arthritis (NOCIA); format: in vivo, Rat (Rattus norvegicus)
# Experimental: Non oil collagen induced arthritis (NOCIA) was induced by emulsifying rat CII (300 μg) in a mixture of LPS (50 μg; Sigma Aldrich), CPG (5′-TCCATGACGTTCCTGACGTT-3′; SEQ ID NO:1) (45 μg; MWG-Biotech AG, Ebersberg, Germany) and alum (6 mg; Sigma Aldrich) and injected s.c. in a total volume of 300 μl.
# Preventive effect on arthritis of phytol injection (200 μl s.c.) five days prior to induction of NOCIA in DA.Ncf1^DA rats, (control (Δ) and compound 1 (phytol) (▴)).
# Delayed type hypersensitivity (DTH) response is abrogated after compound 1 (phytol) injection (FIG. 8B). Day 67 after NOCIA immunization the immune system was challenged by an injection of CII in the ear. Following increase in ear volume was measured and compared to control ear (control n=7 and compound 1 (phytol) n=8).
# DA.Ncf1^DA rats [2] = test: Pristane induced arthritis (PIA) in DA.Ncf1^DA rats; format: in vivo, Rat (Rattus norvegicus)
# NADPH oxidase = test: Oxidative burst response to PMA in spleen granulocytes after s.c. injection in vivo; set-up: species or system Rat (Rattus norvegicus); conditions: spleen granulocytes 5 days after s.c. injection (200 μl) in DA.Ncf1^DA rats, PMA stimulation, compared to naive DA.Ncf1^DA and DA.Ncf1^E3
# Experimental: The term DA.Ncf1^DA rats designates DA rats carrying the Ncf1 DA allele with impaired NADPH oxidase capacity and the term DA.Ncf1^E3 rats designates DA rats carrying the Ncf1^E3 allele with functional NADPH oxidase capacity (Olofsson & Holmdahl (2003) Scand J Immunol 58:155-164).
# Oxidative burst response to PMA stimulation in vitro in spleen granulocytes taken 5 days after s.c. phytol injection in DA.Ncf1^DA rats (200 μl) compared to naive DA.Ncf1^DA and DA.Ncf1^E3 (n=5) (FIG. 3).
# DA.Ncf1^DA rats [3] = test: Collagen induced arthritis (CIA) with oil adjuvant; format: in vivo, Rat (Rattus norvegicus)
# Experimental: Collagen induced arthritis (CIA) was induced by an s.c. injection of 100 μl of rat collagen type II (CII; 100 μg/rat-150 μg/rat), emulsified in incomplete Freund's adjuvant (IFA; Sigma Aldrich) (FIG. 7).
# Effect of s.c. administration of phytol (200 μl) 5 days.
# At day 27 after immunization, sera were taken and analyzed for anti-CII IgG levels (n=7). Titers are relative to pooled positive sera (units).
# DA.Ncf1^DA rats [4] = test: Pristane induced arthritis (PIA) in DA.Ncf1^DA rats; format: in vivo, Rat (Rattus norvegicus); conditions: for severity of PIA, therapeutic effect: 100 μl subcutaneous injections in the neck at day 8 and 10 after arthritis induction; for severity of PIA, oral administration in food 500 mg/kg/day: mixed in the food for continuous uptake; for severity of PIA, oral administration in food 1% daily: mixed in the food for daily uptake
# Experimental: Treatments with compound 1 (phytol) or compound 5 (phytyl acetate) were administered to DA.Ncf1^DA rats as 100 μl subcutaneous injections in the neck at day 8 and 10 after arthritis induction (untreated control (◯), compound 1 (phytol) (♦) and compound 5 (phytyl acetate) (▴)) (FIG. 9).
# Treatments with compound 2 (farnesol) or compound 4 (farnesylacetate) were administered to DA.Ncf1^DA rats as 100 μl subcutaneous injections in the neck at day 8 and 10 after arthritis induction, (untreated control (◯), compound 2 (farnesol) (▪) and compound 4 (farnesylacetate) (▴)) (FIG. 11).
# Treatments with compound 1 (phytol), compound 6 (di-hydro-phytol, compound 5 (phytyl acetate), or compound 7 (di-hydro-phytyl acetate were administered to DA.Ncf1^DA rats as 100 μl subcutaneous injections in the neck at day 8 and 10 after arthritis induction, (untreated control (◯), compound 1 (phytol) (♦), compound 6 (di-hydro-phytol (▪), compound 5 (phytyl acetate) (▴) or compound 7 (di-hydro-phytyl acetate (●)) (FIG. 12).
# Treatments of DA.Ncf1^DA rats with compound 1 (phytol) mixed in the food for continuous uptake compared with Omega3 fatty acids, (untreated control (◯), Omega3 fatty acid (□), phytol 1% daily (♦), phytol 1% every 2'nd day (▴), or phytol 1% initiated day 7 after arthritis induction (▪)) (FIG. 13).
# Treatments of DA.Ncf1^DA rats with compound 5 (phytyl acetate) mixed in the food for daily uptake, (untreated control (◯), compound 1 (phytol) 1% daily (♦), or compound 5 (phytyl acetate) 1% daily (▴)) (FIG. 14).
# Treatments with compound 1 (phytol) at 1.6 or 2.3 g/kg/day administered to DA.Ncf1^DA rats by oral gavage given by dosing every second day with compound 1 (phytol) […] (♦), compound 1 (phytol) […] (▴) or untreated control (◯).
# Treatments of DA.Ncf1^DA rats with compound 1 (phytol) or compound 9 (isophytol) mixed in the food for continuous uptake compared with fenofibrate, (compound 1 (phytol) 500 mg/kg/day (♦), compound 9 (isophytol) 500 mg/kg/day (▴), or fenofibrate 100 mg/kg/day (□). Untreated control (◯).) (see FIG. 17).
# Lewis.IF rat = test: Pristane induced arthritis (PIA) in Lewis.IF rats; conditions: 200 μl s.c. 5 days before induction of PIA
# Experimental: (§1) Disease was induced in all rats at the age of 6-12 weeks. Arthritis development was monitored with a macroscopic scoring system of the four limbs ranging from 0 to 15 (1 point for each swollen or red toe, 1 point for midfoot digit or knuckle, 5 points for a swollen ankle). The scores of the four paws were added yielding a maximum total score of 60 for each rat.
# (§2) Therapeutic treatments were administered s.c. or intra peritoneal (i.p.; 200 μl) after onset of disease in the acute or chronic phase (FIG. 6).
# DA.Ncf1^DA rats [5] = test: Experimental allergic encephalomyelitis (EAE) in vivo; set-up: species or system Rat (Rattus norvegicus); conditions: 200 μL injected at the base of the tail at day 0; scored 40 days; p<0.01 vs untreated control
# Experimental: At day 0, all rats were treated (immunized) with 200 μL SCH (DA.Ncf1^DA spinal cord homogenate, to induce EAE) i.d. at the base of the tail. The rats were then scored according to the following scale for 40 days: • 0=Normal • 1=Tail weakness • 2=Tail paralysis • 3=Tail paralysis and mild […] • 4=Tail paralysis and severe […] • 5=Tail paralysis and paralysis of one limb • 6=Tail paralysis and paralysis of a pair of limbs • 7=Tetra-paresis • 8=Pre-morbid or dead. […] EAE began to appear around day 6.
# [6] = Arthritogenicity / arthritis effect (general statement); format: in vivo; conditions: general statement in Example 3
# [7] = test system: Rats heterozygous for the functional Ncf1 (Ncf1^E3) allele with Pia3 locus; test: Pristane induced arthritis (PIA) in rats with a functional oxidative burst; conditions: injected i.p. (200 μl) at the estimated peak of disease
# Experimental: as §1, §2
# [8] = Biodistribution of 3H-labelled phytol; format: in vivo, Rat (Rattus norvegicus)
# Experimental: DA rats originating from Harlan Netherlands (N=4 rats per group) injected with compound 1 (phytol) mixed with radiolabelled compound 1 (phytol) (Moravek Biochemicals, CA) to a total volume of […] at 167 μCi/rat with ^3H-Phytol. At sacrifice at day 2, 4, 8, 11 and 17, respectively, inguinal lymph nodes, spleen, heart, thymus, kidney, liver, lung, adipose tissue, muscle, injection site tissue and blood were collected in equal amount of saline solution in pre-weight tubes (blood with heparin to prevent coagulation). The tissues were homogenized and mixed with ready-safe scintillation liquid (Beckman Coulter, CA). Biodistribution was estimated as relative CPM per gram tissue.
# HL-60 cells = test: Oxidative burst assay of granulocytes in vitro (isoluminol, extra-cellular ROS); conditions: HL-60 differentiated to granulocytes, 50 minutes, 37° C.
# Experimental: The human myeloma cell line HL-60 (ATCC, CCI-240) was cultured in D-MEM (Gibco, Paisley, UK) complemented with 10% fetal calf serum and Penicillin-Streptomycin. […] Before assaying the cells were washed and resuspended in PBS to a concentration of 10^7 cells/ml.
# Briefly, 5 μl of resuspended oils were added into 96-well plates containing 5×10^5 cells/well in a total volume of 200 μl PBS/well (final concentration isoluminol 50 μg/ml; Sigma Aldrich) and horse radish peroxidase (type II 2,5 U/ml; Sigma Aldrich). Samples were gently mixed and the data collection was initiated immediately. Extra-cellular ROS production was followed at 37° C. as produced luminescence signal (FluoStar Optima, BMG Labtechnologies, Offenburg, Germany) and presented as maximal relative signal during a measurement period of 50 minutes.
# The cells were differentiated to granulocytes by culture in presence of 1,25% dimethylsulfoxide (DMSO; Sigma Aldrich Inc., Milwaukee, Wis.) for six days.
# [9] = relative CPM per gram tissue, day 2, 4, 8, 11, 17
compound,measurement,setting,value
"C/C(=C\CO)CCCC(C)CCCC(C)CCCC(C)C (stereo not drawn) [compound 1, 3,7,11,15-Tetramethyl-2-hexadecen-1-ol]",arthritis severity in NOCIA,DA.Ncf1^DA rats [1]; 200 μl s.c. five days prior to induction,reduces arthritis severity
same,Delayed type hypersensitivity (DTH) response (increase in ear volume),DA.Ncf1^DA rats [1]; CII challenge in the ear day 67 after NOCIA immunization,abrogated
same,"severity of PIA, oral gavage","DA.Ncf1^DA rats [2]; both doses, every second day (1.6 and 3.2 mg/kg as printed elsewhere in the source)",potent arthritis ameliorating effect
same,"severity of arthritis, chronic phase of PIA","DA.Ncf1^DA rats [2]; injected i.p. twice (200 μl) starting day 70, three days between treatments",decreases arthritis severity in the chronic phase of arthritis
same,"severity of PIA (arthritis score), preventive",DA.Ncf1^DA rats [2]; injected s.c. day -5 prior to pristane injection,inhibits development of arthritis
same,cartilage destruction (serum COMP levels),"DA.Ncf1^DA rats [2]; sera taken day 38, treatment from day 22",Cartilage destruction is decreased
same,"severity of arthritis, acute phase of established PIA","DA.Ncf1^DA rats [2]; two injections (200 μl, s.c. or i.p.) with 5 days in between starting day 22",ameliorates disease in the acute phase of arthritis
same,Oxidative burst / NADPH oxidase capacity in vivo,NADPH oxidase,restores to NADPH oxidase capacity to a level comparable to the level of NADPH oxidase capacity in rats with a functional oxidative burst
same,Oxidative burst / NADPH oxidase capacity in vivo,NADPH oxidase; listed as Phytol,restores the oxidative burst defect in vivo
same,anti-CII antibody (IgG) levels in serum,DA.Ncf1^DA rats [3]; day 27 after immunization,decreases anti-CII antibody levels in serum
same,severity of collagen-induced arthritis,DA.Ncf1^DA rats [3]; s.c. administration (200 μl) 5 days before immunization with CII,prevents collagen-induced arthritis
same,"severity of PIA, therapeutic effect",DA.Ncf1^DA rats [4],therapeutic effects
same,"severity of PIA, oral administration in food 500 mg/kg/day",DA.Ncf1^DA rats [4],reduced the severity of arthritis
same,"severity of PIA, oral administration in food 1% daily",DA.Ncf1^DA rats [4],reducing the severity of arthritis
same,"adverse effect of the high doses (macroscopic observation, postmortem dissection)","DA.Ncf1^DA rats [4]; oral gavage every second day, both doses",No adverse effect
same,"severity of PIA, oral administration in food, three regimes","DA.Ncf1^DA rats [4]; phytol 1% daily, 1% every 2'nd day, or 1% initiated day 7 after arthritis induction",reduced the severity of arthritis
same,"severity of PIA, preventive, Lewis.IF rat",Lewis.IF rat,arthritis preventing effect
same,severity of inflammatory and paralyzing symptoms of EAE (score 0-8),DA.Ncf1^DA rats [5],significant difference in severity of inflammatory and paralyzing symptoms of EAE
same,arthritis ameliorating effects,[6],arthritis ameliorating effects
same,arthritogenicity,[6],non arthritogenic
same,severity of arthritis in rats with a functional oxidative burst,[7],arthritis ameliorating effect
same,fraction remaining as a depot in the injection site,"[8]; DA rats, 3H-Phytol injection",> 90%
same,cellular localisation of staining in lymph nodes,"[8]; rat, in vivo","in-between cells or in the cell membrane, i.e. not intracellular"
same,distribution within the draining lymph nodes,"[8]; rat, in vivo",distributed primarily to the cortical regions as well as close to the sinusoidal space of the draining lymph nodes
same,primary tissue for accumulation,[8]; [9],draining lymph nodes were the primary tissue for accumulation
same,time course of distribution to the inguinal lymph nodes,[8]; [9],highest accumulation more than one week after injection and showed a decrease after two weeks
same,Extra-cellular ROS production (maximal relative luminescence signal),HL-60 cells,strong ROS production
"CC(C)=CCC/C(C)=C/CC/C(C)=C/CO [compound 2, 3,7,11-Trimethyl-2,6,10-dodecatrien-1-ol]","severity of PIA, therapeutic effect",DA.Ncf1^DA rats [4],therapeutic effect
same,arthritis ameliorating effects,[6],arthritis ameliorating effects
same,arthritogenicity,[6],non arthritogenic
same,Extra-cellular ROS production (maximal relative luminescence signal),HL-60 cells,strong ROS production
"CC(C)=CCC/C(C)=C/CC/C(C)=C/CC/C(C)=C/CO [compound 3, 3,7,11,15-Tetramethyl-hexada-2,6,10,14-tetraen-1-ol]",arthritis ameliorating effects,[6],arthritis ameliorating effects
same,arthritogenicity,[6],non arthritogenic
same,Extra-cellular ROS production (maximal relative luminescence signal),HL-60 cells,strong ROS production
"CC(=O)OC/C=C(\C)CC/C=C(\C)CCC=C(C)C [compound 4, Acetic acid 3,7,11-trimethyl-dodeca-2,6,10-trienyl ester]","severity of PIA, therapeutic effect",DA.Ncf1^DA rats [4],therapeutic effect comparable to the therapeutic effect of the un-derivatized compound 2
"CC(=O)OC/C=C(\C)CCCC(C)CCCC(C)CCCC(C)C (stereo not drawn) [compound 5, Acetic acid 3,7,11,15-tetra-metyl-hexadec-2-enyl-ester]","severity of PIA, therapeutic effect",DA.Ncf1^DA rats [4],therapeutic effect comparable to the therapeutic effect of the un-derivatized compound 1; also recorded: therapeutic effects
same,"severity of PIA, oral administration in food 1% daily",DA.Ncf1^DA rats [4],equally effective as oral treatment with compound 1 (phytol) in reducing the severity of arthritis
"CC(C)CCCC(C)CCCC(C)CCCC(C)CCO (stereo not drawn) [compound 6, 3,7,11,15-Tetramethyl-hexadecan-1-ol]","severity of PIA, therapeutic effect",DA.Ncf1^DA rats [4],therapeutic effect comparable to the therapeutic effects of compound 1 and compound 5
"CC(=O)OCCC(C)CCCC(C)CCCC(C)CCCC(C)C (stereo not drawn) [compound 7, Acetic acid 3,7,11,15-tetramethyl-hexadecyl ester]","severity of PIA, therapeutic effect",DA.Ncf1^DA rats [4],therapeutic effect comparable to the therapeutic effects of compound 1 and compound 5
"C=CC(C)(O)CCCC(C)CCCC(C)CCCC(C)C (stereo not drawn) [compound 9, 3,7,11,15-Tetramethyl-1-hexadecen-3-ol]","severity of PIA, oral administration in food 500 mg/kg/day",DA.Ncf1^DA rats [4],reduced the severity of arthritis
same,Extra-cellular ROS production (maximal relative luminescence signal),HL-60 cells,strong ROS production
"CC(C)OC(=O)C(C)(C)Oc1ccc(C(=O)c2ccc(Cl)cc2)cc1 [fenofibrate, propan-2-yl 2-[4-(4-chlorobenzoyl)phenoxy]-2-methyl-propanoate, reference compound]","severity of PIA, oral fenofibrate 100 mg/kg/day",DA.Ncf1^DA rats [4]; 100 mg/kg/day,no effect on the severity of arthritis
